In patent US20230128114A1, “METHODS AND COMPOSITIONS FOR TREATING OR PREVENTING AN INFLAMMATORY CONDITION” (priority 2020, published 2023):

How the values were obtained:
LPS-induced sepsis [1] = assay: LPS-induced sepsis in mice, intraperitoneal administration: serum immune marker panel (Luminex/ELISA); assay type: in vivo, C57BL/6 mice
Procedure: (§1) Male C57BL/6 mice weighing 10-20 g were used. Vehicle and active agents (i.e., CBD and hydroxychloroquine) alone or in combination were administered intraperitoneally (IP) (Table 4) or orally (Table 5) at 1 hour before LPS (100 μg/100 μL/mouse) injected intravenously (IV). At 2 hours after LPS injection, blood was collected from all mice by cardiac puncture, sera processed and assayed for biomarkers using either the Th17-plex for IL-1β, IL-2, IL-10, IL-12 (p70), IFN-γ and TNF-α by Luminex, plus IL-6 and D-dimer by ELISA, or the 23-plex for IL-1α, IL-1β, IL-2, IL-3, IL-4, IL-5, IL-6, IL-9, IL-10, IL-12(p40), IL-12(p70), IL-13, IL-17A, Eotaxin, G-CSF, GM-CSF, IFN-γ, KC, MCP-1(MCAF), MIP-1α, MIP-1β, RANTES, and TNF-α by Luminex, plus IL-6 by ELISA. ANOVA followed by Dunnett's test was applied for comparison between vehicle and treatment groups. p<0.05 is considered significant.

LPS-induced sepsis [2] = assay: LPS-induced sepsis in mice, oral administration: serum 23-plex immune marker panel; assay type: in vivo, C57BL/6 mice
Procedure: as §1

[3] = tested on: LPS-induced pulmonary inflammation; assay: LPS-induced pulmonary inflammation: BALF white blood cell count; assay type: in vivo, C57BL/B6 mice; conditions: CBD 10 mg/kg, HCQ 2.5 mg/kg, alone or combined
Procedure: (§2) Male C57BL/B6 mice weighing 10-20 g were used. Vehicle and active agents (i.e., CBD and hydroxychloroquine) alone or in combination were administered intraperitoneally (IP) at 1 hour before LPS (˜80 mg/kg) was administered intratracheally. 24 hours after LPS injection, mice were anaesthetized with pentoparbital and 0.5 mL of PBS was administered twice through a tracheal cannula after which approximately 0.6 mL of broncheoalveolar lavage fluid (BALF) was obtained. The BALF was assayed for IL-1β, TNF-α, MCP-1(MCAF) and CXCL-1 by Luminex. ANOVA followed by Dunnett's test was applied for comparison between vehicle and treatment groups. p<0.05 was considered significant.
BALF collected from mice were also analysed for white blood cell (WBC) count using an automatic haematology analyser. Cell counts were normalised using sham treated mice, and analysed relative to the highest values across the groups (Table 27).

[4] = tested on: LPS-induced pulmonary inflammation; assay: LPS-induced pulmonary inflammation: lung histopathology lesion score; assay type: in vivo, C57BL/B6 mice
Procedure: as §2
In a separate test group of animals with pulmonary inflammation induced as detailed above, lungs were harvested at termination (five lobes per lung) and fixed in 10% neutral buffered formalin for histopathology. Samples were sectioned at 4-6 μm and stained with hematoxylin and eosin (H&E) to examine inflammatory lesions as described by Shackleford et al. (2002, Toxicologic Pathology, 30(1): 93-96). Briefly, a score of 0 corresponds to not present, and a score of 5 indicates a severe/high number of lesions. Scores were averaged across lobes for each animal and then across animals for each treatment group.

TNBS-induced colitis = assay: TNBS-induced colitis; assay type: in vivo, BALB/c mice; conditions: for Relative reduction in Colon to body weight ratio / Relative reduction in Total Colitis Index / Macroscopic damage score, relative reduction / Stool consistency score, relative reduction / MPO, relative reduction: HCQ 2.5 mg/kg, alone or combined; for Relative reduction in Total Colitis Index: histology of distal colon; for Macroscopic damage score, relative reduction / Stool consistency score, relative reduction / MPO, relative reduction: observed; for MPO, relative reduction: colon tissue
Description: Male BALB/c were used as an in vivo model of colitis, induced by intracolonic administration of 2,4,6-trinitrobenzene sulfonic acid (TNBS) in 50% ethanol, as previously described by Antoniou et al. (2016, Annals of Medicine and Surgery, 11: 9-15). Briefly, the ethanol disrupts the intestinal barrier, permitting TNBS to interact with colon proteins. Interaction of TNBS with high-molecular weight proteins renders them immunogenic, leading to Th1 mediated inflammation, which is causative of symptoms include inconsistent stool formation and blood in the faeces.
Vehicle and active agents (i.e., CBD and hydroxychloroquine) alone or in combination were administered intraperitoneally (IP) once a day starting from Day 1 (i.e., 24 hours before TNBS) to Day 4, for a total of 4 consecutive days (Days 1-4). On the Day of TNBS challenge (i.e., Day 2), test articles and vehicle were given 2 hrs before TNBS.
Colon tissues were harvested in all animals at termination. Colon samples were taken at 0.5, 2, and 3.5 cm from the anus, fixed in formalin, and then embedded in paraffin blocks. Four-micrometer tissue sections were cut and stained with H&E for histological analysis in accordance with the method of Dieleman et al. (1998, Clinical Experimental Immunology, 114: 385-391). Histological criteria included: abnormalities of mucosal architecture, extent of inflammation, erosion or ulceration, epithelial regeneration, and the percentage involvement by the disease process. The scoring was based on the findings of the observers by examining three sections from each colon per animal. Total score for colitis (Total Colitis Index) were added, resulting in a combined histological score range from 0 to 60.
Other endpoint measures of stool consistency score (i.e., 0—normal stools, 1, soft but still formed stools, 2—very soft stools, 3—diarrhoea), faecal occult blood score (i.e., 0-negative hemoccult, 1—positive hemoccult, 2—blood traces in stool visible, 3—rectal bleeding), colon weight, colon macroscopic damage score (a composite of adhesions, strictures, ulcers/inflammations and wall thickness) and myeloperoxidase levels in the colon tissue were also assessed. The data from each of these endpoints was baseline subtracted using the equivalent measures from sham treated mice (i.e., no TNBS) and reduction in any measure calculated as a relative reduction. Synergy was calculated using the statistical methods described elsewhere herein.

[5] = tested on: LPS-induced pulmonary inflammation; assay: LPS-induced pulmonary inflammation: BALF cytokines, synergy analysis; assay type: in vivo, C57BL/B6 mice; conditions: CBD 1 mg/kg, HCQ 25 mg/kg, alone or combined; observed
[6] = CBD 1, 5, 10, 25, 50 and 100 mg/kg IP
[7] = CBD 10 mg/kg, HCQ 25 mg/kg, alone or combined, pulmonary lesion score
[8] = hydroxychloroquine 1, 5, 10, 25, 50 and 100 mg/kg IP
[9] = hydroxychloroquine 50 and 100 mg/kg IP
[10] = hydroxychloroquine 20 mg/kg PO alone

C=C(C)[C@@H]1CCC(C)=C[C@H]1c1c(O)cc(CCCCC)cc1O [CBD, cannabidiol]
IFN-γ level vs vehicle group (LPS-induced sepsis [1]; CBD 5 mg/kg IP): Moderate reductions | IFN-γ level vs vehicle group (LPS-induced sepsis [1]; CBD 10 mg/kg IP): moderate reduction | IL-1β level vs vehicle group (LPS-induced sepsis [1]; CBD 10 mg/kg IP): moderate reduction | IL-2 level vs vehicle group (LPS-induced sepsis [1]; CBD 10 mg/kg IP): moderate reduction | IL-12(p70) level vs vehicle group (LPS-induced sepsis [1]; CBD 10 mg/kg IP): moderate reduction | TNF-α level vs vehicle group (LPS-induced sepsis [1]; CBD 10 mg/kg IP): moderate reduction | IFN-γ level vs vehicle group (LPS-induced sepsis [1]; CBD 25 mg/kg IP): Moderate reductions | TNF-α level vs vehicle group (LPS-induced sepsis [1]; CBD 25 mg/kg IP): Moderate reductions | IL-1β level vs vehicle group (LPS-induced sepsis [1]; CBD 100 mg/kg IP): significant (p<0.05) increase | IL-10 level vs vehicle group (LPS-induced sepsis [1]; CBD 100 mg/kg IP): significant (p<0.05) increase | LPS-induced D-dimer level vs vehicle control (LPS-induced sepsis [1]; [6]): dose-dependent increase | LPS-induced IL-1β level vs vehicle control (LPS-induced sepsis [1]; [6]): dose-dependent increase | LPS-induced IL-10 level vs vehicle control (LPS-induced sepsis [1]; [6]): dose-dependent increase | Shape of dose response in the reduction of LPS-induced cytokine levels (LPS-induced sepsis [1]; CBD 1-100 mg/kg IP): bell-shaped dose response curve | Effect on biomarker levels (LPS-induced sepsis [2]; CBD 1 mg/kg PO alone): little or no effect | LPS-induced IL-1α release vs vehicle group (LPS-induced sepsis [2]; CBD 10 mg/kg PO alone): moderate suppression | LPS-induced IL-1β release vs vehicle group (LPS-induced sepsis [2]; CBD 10 mg/kg PO alone): moderate suppression | LPS-induced IL-2 release vs vehicle group (LPS-induced sepsis [2]; CBD 10 mg/kg PO alone): moderate suppression | LPS-induced IL-4 release vs vehicle group (LPS-induced sepsis [2]; CBD 10 mg/kg PO alone): moderate suppression | LPS-induced IL-5 release vs vehicle group (LPS-induced sepsis [2]; CBD 10 mg/kg PO alone): moderate suppression | LPS-induced IL-9 release vs vehicle group (LPS-induced sepsis [2]; CBD 10 mg/kg PO alone): moderate suppression | Relative reduction in white blood cell counts: Neutrophil [3]: 0.25 | Relative reduction in white blood cell counts: WBC [3]: 0.27 | Relative reduction in lesion score ([4]; CBD 1 mg/kg): 0.18 | Relative reduction in lesion score [4, 7]: 0.29 | Colon tissue histology (H&E, 100×), FIG. 3 (TNBS-induced colitis; CBD 1 mg/kg): inflammatory cell infiltration in submucosal edema | Relative reduction in Colon to body weight ratio (TNBS-induced colitis; CBD 1 mg/kg): 0.373 | Relative reduction in Total Colitis Index (TNBS-induced colitis; CBD 1 mg/kg): 0.25 | Macroscopic damage score, relative reduction (TNBS-induced colitis; CBD 1 mg/kg): 0.10 | Stool consistency score, relative reduction (TNBS-induced colitis; CBD 1 mg/kg): 0.17 | MPO, relative reduction (TNBS-induced colitis; CBD 1 mg/kg): 0.34 | IL-6, relative inhibition of cytokine release (BALF) [5]: 0.15

CCN(CCO)CCCC(C)Nc1ccnc2cc(Cl)ccc12 (stereo not drawn) [HCQ]
D-dimer level vs vehicle group (LPS-induced sepsis [1]; [8]): dose-dependent increase | IL-10 level vs vehicle group (LPS-induced sepsis [1]; [8]): significant (p<0.05) increase | IFN-γ level vs vehicle group (LPS-induced sepsis [1]; [9]): moderate decrease | IL-1β level vs vehicle group (LPS-induced sepsis [1]; [9]): significant (p<0.05) decreases | IL-2 level vs vehicle group (LPS-induced sepsis [1]; [9]): significant (p<0.05) decreases | IL-12(p70) level vs vehicle group (LPS-induced sepsis [1]; [9]): moderate decrease | TNF-α level vs vehicle group (LPS-induced sepsis [1]; [9]): moderate decrease | Effect on biomarker levels (LPS-induced sepsis [2]; hydroxychloroquine 2 mg/kg PO alone): little or no effect | LPS-induced IL-1α release vs vehicle group (LPS-induced sepsis [2]; [10]): moderate suppression | LPS-induced IL-1β release vs vehicle group (LPS-induced sepsis [2]; [10]): moderate suppression | LPS-induced IL-2 release vs vehicle group (LPS-induced sepsis [2]; [10]): moderate suppression | LPS-induced IL-4 release vs vehicle group (LPS-induced sepsis [2]; [10]): moderate suppression | LPS-induced IL-5 release vs vehicle group (LPS-induced sepsis [2]; [10]): moderate suppression | LPS-induced IL-9 release vs vehicle group (LPS-induced sepsis [2]; [10]): moderate suppression | Relative reduction in white blood cell counts: Neutrophil [3]: 0.10 | Relative reduction in white blood cell counts: WBC [3]: 0.11 | Relative reduction in lesion score [4, 7]: 0.37 | Relative reduction in lesion score ([4]; HCQ 2.5 mg/kg): 0.21 | Relative reduction in Colon to body weight ratio (TNBS-induced colitis; CBD 1 mg/kg): 0.287 | Relative reduction in Total Colitis Index (TNBS-induced colitis; CBD 1 mg/kg): 0.27 | Macroscopic damage score, relative reduction (TNBS-induced colitis; CBD 1 mg/kg): 0.05 | Stool consistency score, relative reduction (TNBS-induced colitis; CBD 1 mg/kg): 0.00 | MPO, relative reduction (TNBS-induced colitis; CBD 1 mg/kg): 0.00 | Colon tissue histology (H&E, 100×), FIG. 3 (TNBS-induced colitis; hydroxychloroquine 2.5 mg/kg): mild abnormality, cyctic dilation and aberrant crypts | IL-6, relative inhibition of cytokine release (BALF) [5]: 0.08
